Common to all, as to format: physicochemical
Series [1] is described as follows: Dynamic solubility test (water, SGF, FaSSIF, FeSSIF; 37° C.; 1, 4 and 24 hours). The settings on record: for S: Solubility (free concentration) / pH (of filtrate) / FC: Crystalline form transformation: 37° C.; for FC: Crystalline form transformation: XRPD of residual solid. On the procedure: 0.2 g sodium chloride and 0.1 g Triton X-100 are weighted into a 100 mL volumetric flask. Pure water is added for dissolution, stirred until the solid is completely dissolved, about 1.632 mL hydrochloric acid (1M) is added, and the pH is adjusted to 1.8 with 1M hydrochloric acid or 1M sodium hydroxide, and finally it is diluted to volume with pure water.
0.34 g sodium dihydrogen phosphate (NaH2PO4, anhydrous), 0.042 g sodium hydroxide, and 0.62 g sodium chloride are weighted respectively into a 100 mL volumetric flask, about 48 mL pure water is added for dissolution, the pH is adjusted to 6.5 with 1M hydrochloric acid or 1M sodium hydroxide, and finally it is diluted to volume with pure water to obtain a stock solution. A 50-mL volumetric flask is taken. 0.11 g of SIF powder is added, and dissolved with the above stock solution, then diluted to volume. The powder is completely dissolve by ultrasound.
(§1) The purity test, dynamic solubility and stability test in the experiment are completed by Agilent 1260 high performance liquid chromatography. The salt-forming molar ratio test of ions is completed by ion chromatography test.
The dynamic solubility of crystalline form B/crystalline form C of 1,5-naphthalene disulfonate, crystalline form A of oxalate, crystalline form A of tartrate and free crystalline form A in water and three biological solvents were evaluated.
After sampling at each time point, the samples were centrifugally filtered (0.45 μm PTFE filter head), the free salt concentration and pH value in the filtrate were measured, and the solid samples after centrifugation were tested for XRPD.

The nature of series [2]: Evaluation of hygroscopicity by Dynamic Vapor Sorption (DVS). On the procedure: Dynamic Vapor Sorption (DVS) profiles are collected on the DVS Intrinsic of SMS (Surface Measurement Systems). Relative humidity at 25° C. is corrected with the deliquescent points of LiCl, Mg(NO3)2 and KCl.
The hygroscopicity of crystalline form B/crystalline form C of 1,5-naphthalene disulfonate, crystalline form A of oxalate, crystalline form A of tartrate and free crystalline form A were evaluated by DVS.

Series [3] can be described thus: Solid state stability assessment (XRPD and HPLC after exposure at 25° C./60% RH and 40° C./75% RH). Particulars: left exposed for 4 weeks at 25° C./60% RH and 40° C./75% RH. On the procedure: XRPD patterns are collected on an X-ray powder diffraction analyzer produced by PANalytacal, and Table 2 lists the XRPD parameters.
as §1
After leaving the crystalline form C of 1,5-naphthalene disulfonate in the exposure evaporation at 25° C./60% RH and 40° C./75% RH for 1 week, […] and 4 weeks. The physical and chemical stability of the sample was tested by XRPD and HPLC, and the stability data of crystalline form A of tartrate and free crystalline form A at 1 week, 2 weeks and 4 weeks were used as a reference. At the same time, the stability of crystalline form B of 1,5-naphthalene disulfonate and crystalline form A of oxalate was tested under the conditions of 25° C./60% RH and 40° C./75% RH for 1 week.

This is an account of results in patent publication US20250002453A1, “PHARMACEUTICALLY ACCEPTABLE SALT OF ELIGLUSTAT AND CRYSTAL FORM THEREOF” (SPEROGENIX (SHANGHAI) MEDTECH CO., LTD., priority 2021, published 2025).

“Also recorded” adds a separate entry of the source.

On to `CCCCCCCC(=O)N[C@H](CN1CCCC1)[C@H](O)c1ccc2c(c1)OCCO2` [Free crystalline form A, reference compound], for which the “S: Solubility (free concentration)” value in series [1] (FaSSIF, 1 hr) came to 4400 µg/mL; in series [1] (FaSSIF, 4 hrs) it was 4400 µg/mL; in series [1] (FaSSIF, 12 hrs), 4200 µg/mL; in series [1] (H2O, 1 hr), 120 µg/mL; in series [1] (H2O, 4 hrs), 130 µg/mL; in series [1] (H2O, 12 hrs), 170 µg/mL. Further, the “S: Solubility (free concentration)” value in series [1] (SGF, 1 hr) was 6600 µg/mL; in series [1] (SGF, 4 hrs) it was 6700 µg/mL; in series [1] (SGF, 12 hrs), 6500 µg/mL. In addition, the “pH (of filtrate)” value in series [1] (FaSSIF, 1 hr) is on record as 7.31; in series [1] (FaSSIF, 4 hrs) it was 7.29; in series [1] (FaSSIF, 12 hrs) it was 7.30; in series [1] (H2O, 1 hr) it was 9.24; in series [1] (H2O, 4 hrs), 9.03; in series [1] (H2O, 12 hrs), 8.80. Besides, the “pH (of filtrate)” value in series [1] (SGF, 1 hr) is 7.27; in series [1] (SGF, 4 hrs), 7.26; in series [1] (SGF, 12 hrs), 7.30. Besides, the “FC: Crystalline form transformation” value is given as “No” in series [1] (FaSSIF, 1 hr); “No” in series [1] (FaSSIF, 4 hrs); “No” in series [1] (FaSSIF, 12 hrs); “No” in series [1] (H2O, 1 hr); “No” in series [1] (H2O, 4 hrs); “No” in series [1] (H2O, 12 hrs). Moreover, the “FC: Crystalline form transformation” value in series [1] (SGF, 1 hr) is recorded as “No”; in series [1] (SGF, 4 hrs), “No”; in series [1] (SGF, 12 hrs) it was “No”. Besides, the “hygroscopicity (in words)” value in series [2] (DVS) is recorded as “almost no hygroscopicity”. For the same compound, in series [2] (DVS, 25° C./80% RH), the “Hygroscopic weight gain at 25° C./80% RH” value worked out at 0.01%. Moreover, in series [2] (after DVS test), the “Transformation of crystalline form” value is recorded as “did not change in crystalline form; also recorded: No change”. Besides, the “change in crystalline form (XRPD)” value in series [3] is “no change in crystalline form”. Also, in series [3], the “decrease in HPLC purity” value is “no change in crystalline form or decrease in HPLC purity was observed”.
Take `CCCCCCCC(=O)N[C@H](CN1CCCC1)[C@H](O)c1ccc2c(c1)OCCO2.O=S(=O)(O)c1cccc2c(S(=O)(=O)O)cccc12` [Eliglustat 1,5-naphthalene disulfonate]: in series [1] (water versus SGF, in words), the “solubility difference in water and simulated gastric fluid” value is “small”. Moreover, in series [2] (comparison in words), the “hygroscopicity compared with eliglustat hemitartrate crystalline form A” value is “lower hygroscopicity over eliglustat hemitartrate crystalline form A”.
